tested on: HT-29 cells; experiment: In vitro assay for protection of HT-29 cells from necroptosis (TNFα/Smac mimetic/Z-VAD-FMK induction, CCK8 readout); format: cell-based; conditions: TNFα/Smac mimetic/Z-VAD-FMK for 24 h; inhibition of necroptosis; read-out: HT-29 (EC50)

Structure (SMILES) | EC50 [nM]
CO[C@@H](C)C(=O)Nc1nc2cc(-c3ccc4c(c3)c(C(=O)N[C@H](c3ccc(F)cc3)C(F)F)cn4C)ccn2n1 [Compound 165] | < 1
COCC(=O)Nc1nc2cc(-c3ccc4c(c3)c(C(=O)N[C@H](c3ccc(F)cc3)C(F)F)cn4C)ccn2n1 [Compound 166] | < 1
CN(C)CC(=O)Nc1nc2cc(-c3ccc4c(c3)c(C(=O)N[C@H](c3ccc(F)cc3)C(F)F)cn4C)ccn2n1 [Compound 167] | < 1
CN1CCC(C(=O)Nc2nc3cc(-c4ccc5c(c4)c(C(=O)N[C@H](c4ccc(F)cc4)C(F)F)cn5C)ccn3n2)C1 (stereo partly drawn) [Compound 168] | < 1
Cn1cc(C(=O)N2N=CCC2c2ccc(F)cc2)c2cc(-c3ccn4nc(NC(=O)C5CCOC5)nc4c3)ccc21 (stereo not drawn) [Compound 169] | < 1
Cn1cc(C(=O)N2N=CCC2c2ccc(F)cc2)c2cc(-c3ccn4nc(NC(=O)C5CC5)nc4c3)ccc21 (stereo not drawn) [Compound 170] | < 1
Cn1cc(C(=O)Nc2nc3cc(-c4ccc5c(c4)c(C(=O)N4N=CCC4c4ccc(F)cc4)cn5C)ccn3n2)cn1 (stereo not drawn) [Compound 171] | 1 to 10
Cn1cc(C(=O)N2N=CCC2c2ccc(F)cc2)c2cc(-c3ccn4nc(NC(=O)N5CCOCC5)nc4c3)ccc21 (stereo not drawn) [Compound 172] | 1 to 10
CC(C(=O)Nc1cn(C)c2ccc(-c3ccn4nc(NC(=O)C5CC5)nc4c3)cc12)c1ccc(F)cc1 (stereo not drawn) [Compound 177] | 10 to 100
CC(C(=O)Nc1cn(C)c2ccc(-c3ccn4nc(NC(=O)[C@H]5CCCO5)nc4c3)cc12)c1ccc(F)cc1 (stereo partly drawn) [Compound 178] | 100 to 1000
CC(C(=O)Nc1cn(C)c2ccc(-c3ccn4nc(NC(=O)[C@H]5CCCO5)nc4c3)cc12)c1ccc(F)cc1 (stereo partly drawn) [Compound 179] | 100 to 1000
CC(C(=O)Nc1nn(C)c2ccc(-c3ccn4nc(NC(=O)CN(C)C)nc4c3)cc12)c1ccc(F)cc1 (stereo not drawn) [Compound 180] | 1000 to 10000
CC(C(=O)Nc1nn(C)c2ccc(-c3ccn4nc(NC(=O)c5cnn(C)c5)nc4c3)cc12)c1ccc(F)cc1 (stereo not drawn) [Compound 181] | 1000 to 10000
Cn1cc(C(=O)N[C@@H](CF)c2cccc(F)c2)c2cc(-c3ccn4nc(NC(=O)[C@H]5CCCO5)nc4c3)ccc21 [Compound 183] | < 1
Cn1cc(C(=O)N[C@@H]2C[C@H]2c2ccc(F)c(F)c2)c2cc(-c3ccn4nc(NC(=O)[C@H]5CCCO5)nc4c3)ccc21 [Compound 184] | 100 to 1000
Cn1cc(C(=O)N2CCC[C@H]2c2ccc(F)cc2)c2cc(-c3ccn4nc(NC(=O)C5CCOC5)nc4c3)ccc21 (stereo partly drawn) [Compound 186] | < 1
Cn1cc(C(=O)Nc2nc3cc(-c4ccc5c(c4)c(C(=O)N[C@@H](CF)c4ccc(F)cc4)nn5C)ccn3n2)cn1 [Compound 187] | < 1
Cn1nc(C(=O)N[C@@H](CF)c2ccc(F)cc2)c2cc(-c3ccn4nc(NC(=O)C5CCOC5)nc4c3)ccc21 (stereo partly drawn) [Compound 188] | < 1
Cn1nc(C(=O)N[C@@H](CF)c2ccc(F)cc2)c2cc(-c3ccn4nc(NC(=O)N5CCOCC5)nc4c3)ccc21 [Compound 189] | < 1

Structure (SMILES) | EC50 [nM]
Cn1nc(C(=O)N[C@@H](CF)c2ccc(F)cc2)c2cc(-c3ccn4nc(NC(=O)C5CC5)nc4c3)ccc21 [Compound 190] | < 1
C[C@H](NC(=O)c1nn(C)c2ccc(-c3ccn4nc(NC(=O)C5CC5)nc4c3)cc12)c1ccc(F)cc1 [Compound 192] | < 1
C[C@H](NC(=O)c1nn(C)c2ccc(-c3ccn4nc(NC(=O)[C@H]5CCCO5)nc4c3)cc12)c1ccc(F)cc1 [Compound 193] | < 1
C[C@H](NC(=O)c1nn(C)c2ccc(-c3ccn4nc(NC(=O)N5CCOCC5)nc4c3)cc12)c1ccc(F)cc1 [Compound 195] | < 1
CC[C@H](NC(=O)c1cn(C)c2ccc(-c3ccn4nc(NC(=O)CN5CCOCC5)nc4c3)cc12)c1ccc(F)cc1 [Compound 197] | < 1
CCn1cc(C(=O)N[C@@H](CF)c2ccc(F)cc2)c2cc(-c3ccn4nc(NC(=O)N5CCOCC5)nc4c3)ccc21 [Compound 200] | < 1
CN(C(=O)c1cn(C)c2ccc(-c3ccn4nc(NC(=O)C5CC5)nc4c3)cc12)[C@H]1CCc2cc(F)ccc21 [Compound 205] | 1 to 10
CC(c1ccc(F)cc1)n1cnc(-c2cn(C)c3ccc(-c4ccn5nc(NC(=O)c6cnn(C)c6)nc5c4)cc23)n1 (stereo not drawn) [Compound 208] | 100 to 1000
CC(c1ccc(F)cc1)n1cnc(-c2cn(C)c3ccc(-c4ccn5nc(NC(=O)C6CC6F)nc5c4)cc23)n1 (stereo not drawn) [Compound 209] | 100 to 1000
Cn1cc(C2=NC(c3ccc(F)cc3)CO2)c2cc(-c3ccn4nc(NC(=O)C5CC5F)nc4c3)ccc21 (stereo not drawn) [Compound 211] | 10 to 100
Cn1cc(C2=NC(c3ccc(F)cc3)CO2)c2cc(-c3ccn4nc(NC(=O)C5CC5)nc4c3)ccc21 (stereo not drawn) [Compound 212] | 10 to 100
Cn1cc(C(=O)Nc2nc3cc(-c4ccc5c(c4)c(C4=NC(c6ccc(F)cc6)CO4)cn5C)ccn3n2)cn1 (stereo not drawn) [Compound 213] | 10 to 100
COCCn1cc(C(=O)N[C@@H](CF)c2ccc(F)cc2)c2cc(-c3ccn4nc(NC(=O)N5CCOCC5)nc4c3)ccc21 [Compound 214] | 10 to 100
COCCn1cc(C(=O)N[C@@H](CF)c2ccc(F)cc2)c2cc(-c3ccn4nc(NC(=O)CC#N)nc4c3)ccc21 [Compound 215] | 10 to 100
COC(C)C(=O)Nc1nc2cc(-c3ccc4c(c3)c(-c3nncn3C(C)c3ccc(F)cc3)cn4C)ccn2n1 (stereo not drawn) [Compound 216] | 10 to 100
CC(c1ccc(F)cc1)n1cnnc1-c1cn(C)c2ccc(-c3ccn4nc(NC(=O)C5CCOC5)nc4c3)cc12 (stereo not drawn) [Compound 217] | 10 to 100
C[C@H](NC(=O)c1cn(C)c2ccc(-c3ccn4nc(N5CCOCC5=O)nc4c3)cc12)c1ccc(F)cc1 [Compound 218] | 10 to 100
C[C@H](NC(=O)c1cn(C)c2ccc(-c3ccn4nc(N5CCOCC5)nc4c3)cc12)c1ccc(F)cc1 [Compound 219] | 1 to 10

target: T1, RIPK1 Kinase (Homo sapiens, UniProt Q13546); experiment: biochemical; conditions: not given
T1 construct: purchased Eurofins (Kinase Profiler service)
T1 sequence (Q13546 1-671): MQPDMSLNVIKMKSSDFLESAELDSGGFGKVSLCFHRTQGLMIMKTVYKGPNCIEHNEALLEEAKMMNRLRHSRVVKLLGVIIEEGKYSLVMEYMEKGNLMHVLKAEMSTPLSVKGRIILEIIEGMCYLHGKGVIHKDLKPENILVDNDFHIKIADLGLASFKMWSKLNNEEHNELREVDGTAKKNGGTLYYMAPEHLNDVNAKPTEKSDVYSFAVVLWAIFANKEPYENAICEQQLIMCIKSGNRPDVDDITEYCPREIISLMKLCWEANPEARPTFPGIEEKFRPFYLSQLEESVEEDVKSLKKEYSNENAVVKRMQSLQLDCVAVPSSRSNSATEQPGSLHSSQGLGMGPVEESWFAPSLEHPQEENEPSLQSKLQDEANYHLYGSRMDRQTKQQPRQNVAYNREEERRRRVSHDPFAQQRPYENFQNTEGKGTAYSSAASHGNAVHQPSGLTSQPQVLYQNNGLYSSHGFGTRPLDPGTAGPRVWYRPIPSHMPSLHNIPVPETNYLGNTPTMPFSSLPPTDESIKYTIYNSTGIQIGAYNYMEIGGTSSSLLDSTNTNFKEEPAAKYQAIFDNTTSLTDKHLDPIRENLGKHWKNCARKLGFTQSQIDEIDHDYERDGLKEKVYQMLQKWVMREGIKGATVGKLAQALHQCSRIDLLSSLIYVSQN

Structure (SMILES) | IC50 [nM]
C[C@H](NC(=O)c1cn(C)c2ccc(-c3ccn4nc(NC(=O)CN5CCC(O)CC5)nc4c3)cc12)c1ccc(F)cc1 [Compound 6] | 10 to 100
C[C@H](NC(=O)c1cn(C)c2ccc(-c3ccn4nc(NC(=O)C(=O)N5CCOCC5)nc4c3)cc12)c1ccc(F)cc1 [Compound 9] | 10 to 100
C[C@H](NC(=O)c1cn(C)c2ccc(-c3ccn4nc(NC(=O)[C@@H]5CCC(=O)N5)nc4c3)cc12)c1ccc(F)cc1 [Compound 14] | 10 to 100
C[C@H](NC(=O)c1cn(C)c2ccc(-c3ccn4nc(NC(=O)CN5CCOC(C)(C)C5)nc4c3)cc12)c1ccc(F)cc1 [Compound 18] | 10 to 100
C[C@H](NC(=O)c1cn(C)c2ccc(-c3ccn4nc(NC(=O)CN5CCC6(CC5)OCCO6)nc4c3)cc12)c1ccc(F)cc1 [Compound 27] | 10 to 100
C[C@H](NC(=O)c1cn(C)c2ccc(-c3ccn4nc(NC(=O)CN5CC(C)(C#N)C5)nc4c3)cc12)c1ccc(F)cc1 [Compound 29] | 10 to 100
C[C@H](NC(=O)c1cn(C)c2ccc(-c3ccn4nc(NC(=O)CN5CCC(N6CCOCC6)CC5)nc4c3)cc12)c1ccc(F)cc1 [Compound 38] | 10 to 100
C[C@H](NC(=O)c1cn(C)c2ccc(-c3ccn4nc(NC(=O)CN5C[C@H]6C[C@@H]5CO6)nc4c3)cc12)c1ccc(F)cc1 [Compound 39] | 10 to 100
C[C@H](NC(=O)c1cn(C)c2ccc(-c3ccn4nc(NC(=O)CN(C)C)nc4c3)cc12)c1ccc(F)cc1 [Compound 40] | 10 to 100
C[C@H](NC(=O)c1cn(C)c2ccc(-c3ccn4nc(NC(=O)CN5CC(F)(F)C5)nc4c3)cc12)c1ccc(F)cc1 [Compound 42] | 10 to 100
C[C@@H]1CN(CC(=O)Nc2nc3cc(-c4ccc5c(c4)c(C(=O)N[C@@H](C)c4ccc(F)cc4)cn5C)ccn3n2)C[C@H](C)O1 [Compound 46] | 10 to 100
C[C@H](NC(=O)c1cn(C)c2ccc(-c3ccn4nc(NC(=O)CN5CCN(C)CC5)nc4c3)cc12)c1ccc(F)cc1 [Compound 51] | 10 to 100
C[C@H](NC(=O)c1cn(C)c2ccc(-c3ccn4nc(NC(=O)CN5CCOC[C@@H]5C)nc4c3)cc12)c1ccc(F)cc1 [Compound 60] | 10 to 100
COCCNCC(=O)Nc1nc2cc(-c3ccc4c(c3)c(C(=O)N[C@@H](C)c3ccc(F)cc3)cn4C)ccn2n1 [Compound 68] | 10 to 100
C[C@H](NC(=O)c1cn(C)c2ccc(-c3ccn4nc(NC(=O)CN5CC6CCC(C5)O6)nc4c3)cc12)c1ccc(F)cc1 [Compound 71] | 10 to 100
C[C@H](NC(=O)c1cn(C)c2ccc(-c3ccn4nc(NC(=O)C5CCOC5)nc4c3)cc12)c1ccc(F)cc1 (stereo partly drawn) [Compound 106] | 10 to 100
Cn1cc(C(=O)N[C@H]2CCc3ccc(F)cc32)c2cc(-c3ccn4nc(NC(=O)[C@H]5CCCO5)nc4c3)ccc21 [Compound 121] | 10 to 100
Cn1cc(C(=O)Nc2nc3cc(-c4ccc5c(c4)c(C(=O)N[C@H]4CCc6ccc(F)cc64)cn5C)ccn3n2)cn1 [Compound 122] | 100 to 1000
Cn1cc(C(=O)N[C@H]2CCc3cc(C#N)ccc32)c2cc(-c3ccn4nc(NC(=O)C5CC5)nc4c3)ccc21 [Compound 130] | 10 to 100

same assay, conditions: compound 0.001-10 µM; read-out: RIPK1(IC50)

Structure (SMILES) | IC50 [nM]
CC(=O)Nc1nc2cc(-c3ccc4c(c3)c(C(=O)N[C@H]3CCCc5cc(F)ccc53)cn4C)ccn2n1 [Compound 138] | 10 to 100

From EP4782448A1, “SUBSTITUTED PYRIDOTRIAZOLE COMPOUND, AND PREPARATION METHOD THEREFOR AND USE THEREOF” (Origiant Pharmaceutical Co., Ltd., priority 2023, dated 2025)
